Assay [1] concerns the target T1, wild-type hTRPM3α2 (Homo sapiens, UniProt Q9HCF6).
T1 construct: host or cells: HEK293
In words: Intracellular Ca2+ assay (GCaMP6f) in 96-well plates, HEK293 cells, wild type channel. Format: cell-based. The method, then: Intracellular Ca^2+ measurements were performed using a Flexstation-3 96‐well plate reader with rapid well injection (Molecular Devices) as described earlier ([Hughes et al., 2019]) with some modifications. Briefly Human Embryonic Kidney 293 (HEK293) cells were purchased from American Type Culture Collection (ATCC), Manassas, VA, (catalogue number CRL-1573), RRID:CVCL_0045; cell identity was verified by STR analysis by ATCC. HEK293 cells were cultured in MEM supplemented with 10% FBS and 100 IU/ml penicillin plus 100 µg/ml streptomycin in 5% CO2 at 37°C. Additional cell authentication was not performed, but passage number of the cells was monitored, and cells were used up to passage number 25–30 from purchase, when a new batch of cells was thawed with low passage number; cells were tested for the lack of mycoplasma infection. HEK293 cells were transfected with hTRPM3α2-GFP, or its mutants (200 ng) and GCaMP6 (1 μg) using the Effectene reagent (Qiagen). […] GCaMP6 signal was measured at excitation wavelengths 485 nm and fluorescence emission was detected at 525 nm. Sampling interval was 0.86 s and four parallel reads were performed for each condition. […] For measurements at 37°C the MEM medium used to culture the cells was replaced with the measurement solution preheated to 37°C, and the plate was placed in the plate reader warmed to 37°C using its built-in temperature controller.

For assay [2], the system named is non-injected oocytes. In words: Two electrode voltage clamp in non-injected oocytes. Format: cell-based, Xenopus laevis. The settings on record: 50 μM, n = 5. The method, then:
Xenopus laevis oocytes were prepared as described earlier ([Badheka et al., 2015]). All animal procedures were approved by the Institutional Animal Care and Use Committee at Rutgers New Jersey Medical School. In brief, frogs were anesthetized in 0.25% ethyl 3-aminobenzoate methanesulfonate solution (MS222; Sigma-Aldrich); bags of ovaries were removed surgically from the anesthetized frogs. Individual oocytes were obtained by overnight digestion at 16°C in 0.2–0.3 mg/ml type 1A collagenase (Sigma-Aldrich), dissolved in a solution containing 82.5 mM NaCl, 2 mM KCl, 1 mM MgCl2, and […] HEPES, pH 7.4 (OR2 solution). The next day the collagenase containing solution was discarded and the oocytes were washed multiple times with OR2 solution. […]
Two electrode voltage clamp experiments were performed as described ([Badheka et al., 2015]). In brief, oocytes were placed in extracellular solution (97 mM NaCl, 2 mM KCl, 1 mM MgCl2, and […] HEPES, pH 7.4), and currents were recorded with thin-wall inner filament– containing glass pipettes (World Precision Instruments) filled with 3 M KCl in 1% agarose. Currents were measured with a ramp protocol from −100 to 100 mV once every 0.5 s with a GeneClamp 500B amplifier and analyzed with the pClamp 9.0 software (Molecular Devices). […]
(In general: In two-electrode clamp one electrode senses voltage and the other passes current.)

T1 sequence (Q9HCF6 1-1709 isoform Q9HCF6-5): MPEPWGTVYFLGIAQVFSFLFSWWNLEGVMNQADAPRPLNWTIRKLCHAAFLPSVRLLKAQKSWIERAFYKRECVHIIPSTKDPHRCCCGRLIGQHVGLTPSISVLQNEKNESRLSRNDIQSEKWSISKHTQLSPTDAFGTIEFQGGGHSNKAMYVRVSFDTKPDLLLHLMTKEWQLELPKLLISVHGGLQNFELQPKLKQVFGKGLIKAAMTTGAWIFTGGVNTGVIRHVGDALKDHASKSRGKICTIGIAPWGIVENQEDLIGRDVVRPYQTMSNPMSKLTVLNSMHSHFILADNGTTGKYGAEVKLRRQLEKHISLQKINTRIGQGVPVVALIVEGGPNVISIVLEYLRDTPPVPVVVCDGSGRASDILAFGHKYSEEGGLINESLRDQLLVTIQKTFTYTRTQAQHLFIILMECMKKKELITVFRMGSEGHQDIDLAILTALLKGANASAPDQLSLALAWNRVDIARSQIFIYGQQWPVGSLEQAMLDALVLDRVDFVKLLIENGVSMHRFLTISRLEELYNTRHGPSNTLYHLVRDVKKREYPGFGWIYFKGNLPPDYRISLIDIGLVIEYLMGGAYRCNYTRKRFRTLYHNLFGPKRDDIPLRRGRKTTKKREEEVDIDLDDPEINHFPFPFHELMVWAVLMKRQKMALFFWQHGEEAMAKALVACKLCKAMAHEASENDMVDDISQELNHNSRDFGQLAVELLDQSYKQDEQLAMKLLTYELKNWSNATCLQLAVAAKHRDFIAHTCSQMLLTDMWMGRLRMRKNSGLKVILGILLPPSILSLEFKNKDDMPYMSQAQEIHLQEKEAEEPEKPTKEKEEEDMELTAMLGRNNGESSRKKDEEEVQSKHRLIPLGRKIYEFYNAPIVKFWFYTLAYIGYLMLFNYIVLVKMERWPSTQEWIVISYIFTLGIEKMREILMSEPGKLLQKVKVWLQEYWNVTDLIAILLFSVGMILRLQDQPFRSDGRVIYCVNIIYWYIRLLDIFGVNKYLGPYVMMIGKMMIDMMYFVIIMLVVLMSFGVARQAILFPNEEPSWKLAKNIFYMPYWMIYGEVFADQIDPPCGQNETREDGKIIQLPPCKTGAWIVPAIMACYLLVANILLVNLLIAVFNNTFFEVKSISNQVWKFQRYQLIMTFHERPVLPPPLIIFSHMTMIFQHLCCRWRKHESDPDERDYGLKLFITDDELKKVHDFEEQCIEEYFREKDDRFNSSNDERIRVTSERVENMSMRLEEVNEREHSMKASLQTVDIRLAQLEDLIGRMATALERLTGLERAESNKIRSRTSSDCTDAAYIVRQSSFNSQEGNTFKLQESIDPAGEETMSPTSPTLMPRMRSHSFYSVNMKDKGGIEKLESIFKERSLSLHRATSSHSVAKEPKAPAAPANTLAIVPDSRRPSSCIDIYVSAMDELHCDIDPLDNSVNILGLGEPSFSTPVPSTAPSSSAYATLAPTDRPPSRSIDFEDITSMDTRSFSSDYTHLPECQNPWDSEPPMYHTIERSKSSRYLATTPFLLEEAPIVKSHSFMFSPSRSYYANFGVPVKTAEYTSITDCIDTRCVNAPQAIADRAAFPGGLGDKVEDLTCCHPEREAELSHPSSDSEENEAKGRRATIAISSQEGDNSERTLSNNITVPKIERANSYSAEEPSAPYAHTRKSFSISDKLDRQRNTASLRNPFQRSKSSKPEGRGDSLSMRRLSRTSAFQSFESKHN

Consider `CCC1(c2ccccc2)C(=O)NCNC1=O` [primidone], for which the “Effect on basal cytoplasmic Ca2+ levels” value in assay [1] (wild type TRPM3, room temperature (21°C)) is “no effect”. For the same molecule, the “Effect on basal Ca2+ levels at 37°C” value in assay [1] (wild type channels, 50 μM, 37°C) is “reduced basal Ca^2+ levels”. In addition, in assay [2], the “Inhibition of basal current” value is “did not induce any inhibition”.

The record behind these values is paper PMC7255801, “Disease-associated mutations in the human TRPM3 render the channel overactive via two distinct mechanisms” (eLife, 2020).
